Patent publication US8008458B2, “Fatty acid phenolic conjugates” (Indiana University Health Inc., priority 2002, dated 2011)

Key:
Format in all cases: cell-based
[1] = test system: MDA-231-MB breast cancer cells; assay: Induction of apoptosis, activated caspase 3 (FITC-DEVD-FMK fluorescence microscopy); conditions: 25 μM or similar concentrations, 4 hours at 37° C. (FIG. 11)
Description: DHA and EPA conjugates of propofol are used to test their activities against MDA-231-MB breast cancer cells. Induction of apoptosis was assayed by incubating cells with DHA, EPA, or propofol alone or DHA, EPA with propofol as well as DHA-, and EPA as propofol conjugates for 4 hours at 37° C.

[2] = test system: breast carcinoma MDA-MB-231 cells; assay: Cell adhesion assay, adherence to human vitronectin; conditions: 45 min at 37° C., compared with vehicle treated control (FIG. 13)
Description: The cell adhesion assay was performed according to the procedure described in Deryugina, E. I., Ratnikov, B., Postnova, T. I., Rozanov, D. V., Strongin, A. Y. (2002) J. Biol. Chem. 277, 9749-9756. The cell adhesion assay was preformed using cyctomatrix of human vitronectin in a 96-well plate (Chemicon International Incorp. of Temecula, Calif.). Each well was incubated with 100 μL of breast carcinoma MDA-MB-231 cells (1×10^5 cells/ml) at 37° C. for 45 min in a CO2 incubator. Individual wells were treated with one of the following: (a) individual agents: DHA, EPA, and propofol; or (b) the combined agents: DHA and propofol, and EPA and propofol; or (c) the conjugates DHA-propofol, or EPA propofol (prepared as described above in Examples 2 and 3). After incubation, the wells were washed three times with PBS, and the adhered cells were stained with crystal violet in 10% ethanol for 5 min at room temperature. The excess stain was subsequently removed by washing the wells six times with PBS. The stained cells were dissolved in 100 microliters (μL) of solubilizing buffer (1:1 mixture of 0.1M NaH2PO4 at a pH of 4.5 in 50% ethanol) and the absorbance of each of the resulting samples was read at 540 nm. The absorbance of dye in the control (vehicle treated cells) was regarded as 100%, and the percent adherence of treated cells was calculated in comparison to that control.

[3] = test system: Jurkat leukemic cells; assay: Jurkat leukemic cell growth and viability (WST-1 Cell Proliferation Kit); conditions: RVT alone, 10 μM, 24 hours, RPMI media containing 2% serum
Description: In order to evaluate the anti-proliferative activity and synergism between DHA and RVT, the two compounds were added separately to cell cultures containing Jurkat leukemic cells. In a separate experiment, a mixture of DHA and RVT components were added to the Jurkat leukemic cell cultures. The results are illustrated in FIG. 8 as a bar graph. Jurkat cells (Jurkat clone E6-1 from American Type Culture Collection of Manassas, Va. (5×10^4/well)) were incubated with either DHA or RVT, or a combination as indicated in a 96-well plate for 24 hours at 37° C. using a 5% CO2 in RPMI media containing 2% serum. Cell growth and viability were determined using a WST-1 Cell Proliferation Kit (sold by Roche Molecular Biochemicals of Indianapolis, Ind.). The control was a “ethanol-treated” control group. For the results illustrated in FIG. 8, the average was taken of three separate experiments. For the combination of DHA and RVT, a student t test provided a P<0.001 relative to the “ethanol-treated” control group. […] However, when the two components were combined into a single formulation, a synergistic inhibition of Jurkat cell growth was observed. The combination of DHA (30 μM) and RVT (10 μM) inhibited cell growth by about 60%. This is indicative of a synergistic interaction between DHA and RVT on cancer cell growth. […]

[4] = test system: Jurkat cells; assay: Jurkat leukemic cell apoptosis (YO-PRO-1 labeling, flow cytometry)
Description: The DHA-RVT ester prepared according to Example 1 was dissolved in DMSO. This solution was used to treat Jurkat cells labeled with YO-PRO-1 (sold by Molecular Probes of Oregon), which is a green fluorescent dye used in flagging apoptotic cells. The labeled cells were analyzed using a FACStar-plus flow cytometer equipped with a water-cooled argon laser emitting at a frequency of 488 nm. Detection of the fluorescent probe was ascertained using a 530±30 band-pass filter. The data depicted in FIGS. 10a-c are illustrated in the form of a histogram. The fluorescent intensity is indicative of apoptotic expression. The unfilled histogram represents the labeled, non-treated cells (1); the filled histogram represents the treated cells (2). […] At approximately 1 μM concentration, the DHA-RVT ester induced apoptosis in approximately 50% of the Jurkat cells (FIG. 10b) while at a concentration of 0.1 μM the ester had little effect on the Jurkat cells (FIG. 10c). Concentrations of resveratrol (10 μM) plus DHA (10 μM) have no effect on Jurkat cell growth.

Row | Compound | induction of apoptosis [1] | inhibition of adherence of cancerous cells to vitronectin [2] | other results
1 | CCC=CCC=CCC=CCC=CCC=CCC=CCCC(=O)Oc1c(C(C)C)cccc1C(C)C [DHA-propofol, 2,6 Diisopropylphenyldocosa-Hexaenoate] | effectively induced apoptosis | inhibition of adherence | 
2 | Oc1ccc(C=Cc2cc(O)cc(O)c2)cc1 [RVT, resveratrol] |  |  | effect on Jurkat cell growth [3]: neither the DHA (up to 30 μM) nor the RVT (10 μM) alone had any significant effect
3 | CC(C)c1cccc(C(C)C)c1O [propofol, 2,6-diisopropylphenol, reference compound] | not very effective | not displayed | 
4 | CC/C=C\C/C=C\C/C=C\C/C=C\C/C=C\CCCC(=O)O [EPA, eicosopentenoic acid, reference compound] | not very effective | not displayed | 
5 | resveratrol ester of docosahexaenoic acid [DHA-RVT ester] |  |  | effect on Jurkat cells (apoptosis) ([4]; 0.1 μM (FIG. 10c)): little effect; apoptosis of Jurkat cells ([4]; 10 μM (FIG. 10a)): apoptosis in nearly all; Jurkat cells in which apoptosis was induced ([4]; approximately 1 μM (FIG. 10b)): approximately 50%
6 | CCC=CCC=CCC=CCC=CCC=CCCCC(=O)Oc1c(C(C)C)cccc1C(C)C [EPA-propofol, 2,6-Diisopropylphenyl Eicosopentenoate] | effectively induced apoptosis | inhibition of adherence | 
